Source: patent publication US8192962B2, “Processes for detecting toxic substances” (Daikin Industries, Ltd., priority 2001, dated 2012)

Test system: Transport facilitation protein genes
Assay: DNA chip mRNA expression in yeast, transport facilitation protein genes (Table 5)
Type: cell-based, Saccharomyces cerevisiae S288C
How it was run: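 Values are treated/untreated fluorescence ratios from a whole-genome yeast DNA chip hybridized over 12 hours at 65° C with Cy3- or Cy5-labelled cDNA from poly(A) mRNA. Log-phase S288C yeast in YPD at 25° C had received a single toxic chemical for two hours, dosed to slow growth without killing.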

CCCCC[C@H](O)CC(=O)CCc1ccc(O)c(OC)c1 [(13), gingerol]
The level of expressed mRNA in the presence of chemical substance/The level of expressed mRNA in the absence of chemical substance (yeast gene YBL030C): 0.5 | The level of expressed mRNA in the presence of chemical substance/The level of expressed mRNA in the absence of chemical substance (yeast gene YBL099W): 0.9 | The level of expressed mRNA in the presence of chemical substance/The level of expressed mRNA in the absence of chemical substance (yeast gene YBR052C): 2.1 | The level of expressed mRNA in the presence of chemical substance/The level of expressed mRNA in the absence of chemical substance (yeast gene YBR068C): 2.2 | The level of expressed mRNA in the presence of chemical substance/The level of expressed mRNA in the absence of chemical substance (yeast gene YBR127C): 0.9 | The level of expressed mRNA in the presence of chemical substance/The level of expressed mRNA in the absence of chemical substance (yeast gene YBR132C): 1.4 | The level of expressed mRNA in the presence of chemical substance/The level of expressed mRNA in the absence of chemical substance (yeast gene YBR207W): 2.2 | The level of expressed mRNA in the presence of chemical substance/The level of expressed mRNA in the absence of chemical substance (yeast gene YBR291C): 1.0 | The level of expressed mRNA in the presence of chemical substance/The level of expressed mRNA in the absence of chemical substance (yeast gene YBR293W): 3.0 | The level of expressed mRNA in the presence of chemical substance/The level of expressed mRNA in the absence of chemical substance (yeast gene YBR294W): 3.1 | The level of expressed mRNA in the presence of chemical substance/The level of expressed mRNA in the absence of chemical substance (yeast gene YBR295W): 1.8 | The level of expressed mRNA in the presence of chemical substance/The level of expressed mRNA in the absence of chemical substance (yeast gene YBR298C): 0.8 | The level of expressed mRNA in the presence of chemical substance/The level of expressed mRNA in the absence of chemical substance (yeast gene YCL025C): 0.5 | The level of expressed mRNA in the presence of chemical substance/The level of expressed mRNA in the absence of chemical substance (yeast gene YCL038C): 1.9 | The level of expressed mRNA in the presence of chemical substance/The level of expressed mRNA in the absence of chemical substance (yeast gene YCL069W): 0.8 | The level of expressed mRNA in the presence of chemical substance/The level of expressed mRNA in the absence of chemical substance (yeast gene YCR024C-A): 0.5 | The level of expressed mRNA in the presence of chemical substance/The level of expressed mRNA in the absence of chemical substance (yeast gene YCR037C): 1.3 | The level of expressed mRNA in the presence of chemical substance/The level of expressed mRNA in the absence of chemical substance (yeast gene YCR098C): 1.4 | The level of expressed mRNA in the presence of chemical substance/The level of expressed mRNA in the absence of chemical substance (yeast gene YDL128W): 1.6 | The level of expressed mRNA in the presence of chemical substance/The level of expressed mRNA in the absence of chemical substance (yeast gene YDL198C): 2.0 | The level of expressed mRNA in the presence of chemical substance/The level of expressed mRNA in the absence of chemical substance (yeast gene YDL210W): 1.2 | The level of expressed mRNA in the presence of chemical substance/The level of expressed mRNA in the absence of chemical substance (yeast gene YDL245C): 2.0 | The level of expressed mRNA in the presence of chemical substance/The level of expressed mRNA in the absence of chemical substance (yeast gene YDR038C): 2.0 | The level of expressed mRNA in the presence of chemical substance/The level of expressed mRNA in the absence of chemical substance (yeast gene YDR039C): 1.8 | The level of expressed mRNA in the presence of chemical substance/The level of expressed mRNA in the absence of chemical substance (yeast gene YDR086C): 0.7 | The level of expressed mRNA in the presence of chemical substance/The level of expressed mRNA in the absence of chemical substance (yeast gene YDR270W): 1.8 | The level of expressed mRNA in the presence of chemical substance/The level of expressed mRNA in the absence of chemical substance (yeast gene YDR298C): 1.2 | The level of expressed mRNA in the presence of chemical substance/The level of expressed mRNA in the absence of chemical substance (yeast gene YDR342C): 0.6 | The level of expressed mRNA in the presence of chemical substance/The level of expressed mRNA in the absence of chemical substance (yeast gene YDR343C): 0.8 | The level of expressed mRNA in the presence of chemical substance/The level of expressed mRNA in the absence of chemical substance (yeast gene YDR345C): 1.2 | The level of expressed mRNA in the presence of chemical substance/The level of expressed mRNA in the absence of chemical substance (yeast gene YDR387C): 1.3 | The level of expressed mRNA in the presence of chemical substance/The level of expressed mRNA in the absence of chemical substance (yeast gene YEL027W): 0.7 | The level of expressed mRNA in the presence of chemical substance/The level of expressed mRNA in the absence of chemical substance (yeast gene YEL065W): 0.8 | The level of expressed mRNA in the presence of chemical substance/The level of expressed mRNA in the absence of chemical substance (yeast gene YER119C): 1.6 | The level of expressed mRNA in the presence of chemical substance/The level of expressed mRNA in the absence of chemical substance (yeast gene YFL011W): 0.8 | The level of expressed mRNA in the presence of chemical substance/The level of expressed mRNA in the absence of chemical substance (yeast gene YFL041W): 1.8 | The level of expressed mRNA in the presence of chemical substance/The level of expressed mRNA in the absence of chemical substance (yeast gene YFL050C): 1.2 | The level of expressed mRNA in the presence of chemical substance/The level of expressed mRNA in the absence of chemical substance (yeast gene YFL054C): 2.3 | The level of expressed mRNA in the presence of chemical substance/The level of expressed mRNA in the absence of chemical substance (yeast gene YFL055W): 1.3 | The level of expressed mRNA in the presence of chemical substance/The level of expressed mRNA in the absence of chemical substance (yeast gene YGL008C): 1.9 | The level of expressed mRNA in the presence of chemical substance/The level of expressed mRNA in the absence of chemical substance (yeast gene YGL104C): 2.0 | The level of expressed mRNA in the presence of chemical substance/The level of expressed mRNA in the absence of chemical substance (yeast gene YGL167C): 1.5 | The level of expressed mRNA in the presence of chemical substance/The level of expressed mRNA in the absence of chemical substance (yeast gene YGR055W): 1.9 | The level of expressed mRNA in the presence of chemical substance/The level of expressed mRNA in the absence of chemical substance (yeast gene YGR065C): 0.8 | The level of expressed mRNA in the presence of chemical substance/The level of expressed mRNA in the absence of chemical substance (yeast gene YGR082W): 0.5 | The level of expressed mRNA in the presence of chemical substance/The level of expressed mRNA in the absence of chemical substance (yeast gene YGR138C): 0.6 | The level of expressed mRNA in the presence of chemical substance/The level of expressed mRNA in the absence of chemical substance (yeast gene YGR191W): 1.0 | The level of expressed mRNA in the presence of chemical substance/The level of expressed mRNA in the absence of chemical substance (yeast gene YGR197C): 2.4 | The level of expressed mRNA in the presence of chemical substance/The level of expressed mRNA in the absence of chemical substance (yeast gene YGR224W): 0.8 | The level of expressed mRNA in the presence of chemical substance/The level of expressed mRNA in the absence of chemical substance (yeast gene YGR260W): 0.5
